ChEMBL document CHEMBL5465560, “Selectivity Literature for EUbOPEN Chemogenomic Library” (2024)

Assays:
[1] = target: Protein-tyrosine kinase 2-beta (Homo sapiens) (UniProt Q14289); test: Selectivity interaction (KinomeScan (DiscoverX)) EUB0000229b PTK2B; settings: at 10 µM
[2] = target: T1, Testis-specific serine/threonine-protein kinase 1 (Homo sapiens) (UniProt Q9BXA7); settings: at 10 µM
T1 sequence (whole entry): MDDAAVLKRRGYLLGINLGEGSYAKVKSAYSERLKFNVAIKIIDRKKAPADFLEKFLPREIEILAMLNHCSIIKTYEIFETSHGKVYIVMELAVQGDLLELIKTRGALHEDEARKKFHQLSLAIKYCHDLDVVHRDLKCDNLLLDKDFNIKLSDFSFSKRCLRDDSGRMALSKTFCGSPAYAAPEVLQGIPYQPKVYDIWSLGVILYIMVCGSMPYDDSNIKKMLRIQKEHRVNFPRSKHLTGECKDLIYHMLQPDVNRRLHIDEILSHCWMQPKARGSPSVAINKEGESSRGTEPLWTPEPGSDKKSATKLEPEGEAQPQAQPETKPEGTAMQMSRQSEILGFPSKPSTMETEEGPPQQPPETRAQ

[3] = target: T2, Serine/threonine-protein kinase Nek1 (Homo sapiens) (UniProt Q96PY6); settings: at 10 µM
T2 sequence (whole entry): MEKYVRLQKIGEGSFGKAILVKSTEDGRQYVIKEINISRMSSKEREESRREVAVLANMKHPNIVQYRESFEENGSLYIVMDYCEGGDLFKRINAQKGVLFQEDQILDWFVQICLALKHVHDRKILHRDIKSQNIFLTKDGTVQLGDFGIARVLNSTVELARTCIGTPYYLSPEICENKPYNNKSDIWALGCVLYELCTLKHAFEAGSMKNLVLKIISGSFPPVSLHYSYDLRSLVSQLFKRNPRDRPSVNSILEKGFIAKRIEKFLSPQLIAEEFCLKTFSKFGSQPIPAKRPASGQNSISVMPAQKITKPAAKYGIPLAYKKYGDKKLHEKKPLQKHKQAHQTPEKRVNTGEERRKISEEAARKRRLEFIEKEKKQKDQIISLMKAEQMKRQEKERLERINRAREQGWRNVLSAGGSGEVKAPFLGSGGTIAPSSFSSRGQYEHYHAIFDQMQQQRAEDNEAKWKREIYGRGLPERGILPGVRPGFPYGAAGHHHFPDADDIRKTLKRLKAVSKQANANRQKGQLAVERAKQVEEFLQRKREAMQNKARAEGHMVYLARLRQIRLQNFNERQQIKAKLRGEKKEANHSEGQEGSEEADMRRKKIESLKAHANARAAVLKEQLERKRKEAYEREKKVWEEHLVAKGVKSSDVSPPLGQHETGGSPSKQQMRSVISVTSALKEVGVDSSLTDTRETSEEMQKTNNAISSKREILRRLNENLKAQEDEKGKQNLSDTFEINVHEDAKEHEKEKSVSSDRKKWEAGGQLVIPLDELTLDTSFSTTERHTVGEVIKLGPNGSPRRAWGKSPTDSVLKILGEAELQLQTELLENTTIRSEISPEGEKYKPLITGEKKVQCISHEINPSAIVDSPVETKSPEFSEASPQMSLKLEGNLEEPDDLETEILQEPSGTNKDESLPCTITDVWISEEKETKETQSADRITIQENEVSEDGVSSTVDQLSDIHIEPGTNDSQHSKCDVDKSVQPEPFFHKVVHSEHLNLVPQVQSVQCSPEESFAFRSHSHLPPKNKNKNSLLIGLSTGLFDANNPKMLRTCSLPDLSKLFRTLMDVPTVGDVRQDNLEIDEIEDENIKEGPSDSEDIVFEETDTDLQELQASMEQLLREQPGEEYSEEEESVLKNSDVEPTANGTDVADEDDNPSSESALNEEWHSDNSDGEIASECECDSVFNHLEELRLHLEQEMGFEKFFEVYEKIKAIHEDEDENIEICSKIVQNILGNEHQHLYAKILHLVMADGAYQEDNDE

[4] = target: T3, Serine/threonine-protein kinase D2 (Homo sapiens) (UniProt Q9BZL6); test: Selectivity interaction (ActivX KiNativ screen (ex vivo kinase selectivity in human PBMCs)) EUB0001619a PRKD2; format: cell-based; settings: PBMC, at 1 µM
T3 sequence (whole entry): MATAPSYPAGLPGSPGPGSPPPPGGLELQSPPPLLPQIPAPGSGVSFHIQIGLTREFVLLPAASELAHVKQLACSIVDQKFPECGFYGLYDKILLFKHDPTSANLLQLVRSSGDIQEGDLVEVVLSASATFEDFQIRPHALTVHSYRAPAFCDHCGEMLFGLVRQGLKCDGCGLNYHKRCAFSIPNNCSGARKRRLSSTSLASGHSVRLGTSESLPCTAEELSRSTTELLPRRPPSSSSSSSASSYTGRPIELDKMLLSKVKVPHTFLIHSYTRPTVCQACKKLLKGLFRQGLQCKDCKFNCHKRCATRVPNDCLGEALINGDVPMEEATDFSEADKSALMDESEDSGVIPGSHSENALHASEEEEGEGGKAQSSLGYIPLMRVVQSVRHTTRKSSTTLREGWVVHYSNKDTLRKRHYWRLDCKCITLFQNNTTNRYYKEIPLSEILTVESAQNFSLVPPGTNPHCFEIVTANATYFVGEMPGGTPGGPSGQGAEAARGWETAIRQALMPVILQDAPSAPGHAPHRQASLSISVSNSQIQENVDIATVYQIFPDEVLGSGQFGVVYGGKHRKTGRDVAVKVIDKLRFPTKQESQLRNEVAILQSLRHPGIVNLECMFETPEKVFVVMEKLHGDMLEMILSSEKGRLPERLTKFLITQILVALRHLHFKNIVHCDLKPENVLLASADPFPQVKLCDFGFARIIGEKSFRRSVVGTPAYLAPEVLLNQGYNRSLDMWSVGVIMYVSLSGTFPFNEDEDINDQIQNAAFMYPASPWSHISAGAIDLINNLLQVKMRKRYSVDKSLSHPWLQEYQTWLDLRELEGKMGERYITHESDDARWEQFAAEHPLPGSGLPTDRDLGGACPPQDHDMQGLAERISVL

[5] = target: T4, Serine/threonine-protein kinase 17B (Homo sapiens) (UniProt O94768); test: Selectivity interaction (KinomeScan (DiscoverX)) EUB0000607a STK17B; settings: at 10 µM
T4 sequence (whole entry): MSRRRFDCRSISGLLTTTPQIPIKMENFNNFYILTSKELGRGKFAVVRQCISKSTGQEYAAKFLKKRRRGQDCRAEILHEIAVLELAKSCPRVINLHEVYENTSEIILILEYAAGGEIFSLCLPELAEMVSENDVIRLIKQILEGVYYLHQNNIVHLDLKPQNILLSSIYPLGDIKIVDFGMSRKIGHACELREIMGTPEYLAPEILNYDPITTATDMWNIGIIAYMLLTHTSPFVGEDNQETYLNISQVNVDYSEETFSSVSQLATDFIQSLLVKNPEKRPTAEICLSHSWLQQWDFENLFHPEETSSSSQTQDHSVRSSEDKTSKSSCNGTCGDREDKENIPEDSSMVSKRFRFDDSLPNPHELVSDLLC

Protein-tyrosine kinase 2-beta (Homo sapiens), sequence (Q14289 whole entry, looked up): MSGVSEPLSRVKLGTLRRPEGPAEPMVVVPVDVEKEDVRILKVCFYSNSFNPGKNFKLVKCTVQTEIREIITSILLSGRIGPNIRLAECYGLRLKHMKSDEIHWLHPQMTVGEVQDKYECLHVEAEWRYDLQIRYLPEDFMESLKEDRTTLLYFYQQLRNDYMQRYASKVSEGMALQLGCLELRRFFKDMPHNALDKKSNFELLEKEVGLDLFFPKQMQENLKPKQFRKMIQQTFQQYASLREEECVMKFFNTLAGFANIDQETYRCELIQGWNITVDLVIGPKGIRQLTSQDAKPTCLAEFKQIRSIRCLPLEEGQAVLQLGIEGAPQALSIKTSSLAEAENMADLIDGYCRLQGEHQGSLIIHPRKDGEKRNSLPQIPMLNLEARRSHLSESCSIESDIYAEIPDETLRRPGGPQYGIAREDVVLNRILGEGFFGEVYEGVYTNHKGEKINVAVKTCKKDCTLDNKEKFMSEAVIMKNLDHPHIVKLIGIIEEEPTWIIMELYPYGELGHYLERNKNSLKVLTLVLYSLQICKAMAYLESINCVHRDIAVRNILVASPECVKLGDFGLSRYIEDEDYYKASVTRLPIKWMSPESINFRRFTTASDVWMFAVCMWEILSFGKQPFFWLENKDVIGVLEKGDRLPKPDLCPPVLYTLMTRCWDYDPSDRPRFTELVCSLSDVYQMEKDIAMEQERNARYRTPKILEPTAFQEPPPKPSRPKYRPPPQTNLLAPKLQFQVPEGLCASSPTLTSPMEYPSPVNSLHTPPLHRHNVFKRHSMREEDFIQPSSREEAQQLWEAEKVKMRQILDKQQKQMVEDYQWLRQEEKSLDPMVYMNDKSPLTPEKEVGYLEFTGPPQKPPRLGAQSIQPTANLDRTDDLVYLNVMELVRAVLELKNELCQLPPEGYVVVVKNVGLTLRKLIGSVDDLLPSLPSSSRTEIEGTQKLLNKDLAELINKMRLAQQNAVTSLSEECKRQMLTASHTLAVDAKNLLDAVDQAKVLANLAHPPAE

COc1cc(N(C)c2ccnc3ccc(C(F)(F)F)cc23)cc(OC)c1OC
% binding [1]: 95%

COCC(=O)NC/C=C/c1ccc2ncnc(Nc3ccc(Oc4ccc(C)nc4)c(C)c3)c2c1 [CP-724714]
% of control [2]: 100%
% of control [3]: 83%

N#Cc1cccc(-c2c[nH]c3ncnc(N4CCOCC4)c23)c1
% of inhibition [4]: -2%

CNC(=O)Nc1ccc(-c2nc(N3CC4CCC(C3)O4)c3cnn(C4CCC5(CC4)OCCO5)c3n2)cc1
% of control [5]: 100%
